Assay results taken from patent US20210395327A1, “Growth Hormone-Releasing Hormone Antagonists and Uses Thereof” (United States Government As Represented By The Department …, priority 2019, published 2021).
“Also recorded” adds a separate entry of the source. Non-standard residues stand in square brackets, D forms with d. Residues, ends and D or L forms follow the SMILES beside them. *: point of attachment. Phenylacetyl(2,3,4,5,6-F5) = O=C(Cc1c(F)c(F)c(F)c(F)c1F)*; Phe(F5) = N[C@@H](Cc1c(F)c(F)c(F)c(F)c1F)C(=O)O; Phe(4-Cl) = N[C@@H](Cc1ccc(Cl)cc1)C(=O)O; hArg = N=C(N)NCCCC[C@H](N)C(=O)O; 12Ado = NCCCCCCCCCCCC(=O)O; Nle = CCCC[C@H](N)C(=O)O; Orn = NCCC[C@H](N)C(=O)O; Abu = CC[C@H](N)C(=O)O; PhAc = O=C(Cc1ccccc1)*

Legend:
[1] = test system: NCI-N87 stomach cancer cells; assay: In vitro cell viability (CellTiter 96), N87; type: cell-based, human; conditions: for In vitro relative inhibitory potency in comparison to MIA-602, NCI-N87: Table 3B, 5 μM for 72 H, MIA-602 = 1; for relative inhibitory potency in comparison to MIA-602, Stomach N87: antagonist 5 μM for 72 h, cell proliferation assay, MIA602 = 1
Experimental: The inhibitory effects of the various synthesized GHRH antagonists were tested in cell proliferation assays in various human cancer cell lines including stomach cancer (KATOIII, N87), colon cancer (HT-29), urothelial cancer (J82, RT4), pancreatic cancer (PANC-1, CFPAC-1), prostatic cancer (PC3), breast cancer (MX-1, HCC1806), ovarian cancer (SK-OV-3, OVCAR-3) and lung cancer (HCC827, H460).
Cell culture. Human cancer cell lines including pancreatic (PANC-1 and CFPAC-1), lung (HCC827 and H460), stomach (NCI-N87 and KATOIII), urothelial (J82, RT4), prostatic (PC3), breast (MX-1 and HCC 1806), colorectal (HT-29), and ovarian (SK-OV-3 and OVCAR-3) were obtained from the American Type Culture Collection (ATCC) and cultured at 37° C. in a humidified 95% air/5% CO2 atmosphere in the medium recommended by ATCC.
In vitro cell viability. Cell viability was analyzed as follows: cancer cells including pancreatic (PANC-1 and CFPAC-1), lung (HCC827 and H460), stomach (NCI-N87 and KATOIII), urothelial (J82, RT4), prostatic (PC3) and breast (MX-1 and HCC 1806), colorectal (HT-29) and ovarian (SK-OV-3 and OVCAR-3) were grown on 96 well plates to ˜60% confluence, the cells were starved for 24 h in culture medium containing 0.5% FBS. Cells were then treated with GHRH antagonists MIA602 AVR compounds at concentrations of 1, 2.5 or 5 μM, or vehicle (0.1% DMSO) in quintuplicates for 72 hours. The medium was replaced every 48 hours. Cell viability was measured using CellTiter 96 aqueous one solution kit (Promega). Inhibitory effects of tested AVR compounds in comparison to that of MIA602 are presented as inhibitory potency.
Inhibitory effects of selected AVR compounds in comparison to that of MIA602 are presented as inhibitory potency (e.g., percentage of inhibition). […] The cell lines tested including lung cancer HCC827 (FIG. 2A), pancreatic cancer CFPAC-1 (FIG. 2B), stomach cancer N87 (FIG. 2C), colon cancer HT-29 (FIG. 2D), breast cancers MX-1 and HCC1806 (FIGS. 2 E, F). Based on the results of cell proliferation assay after cancer cells were treated with antagonist at concentration of 5 μM for 72H, the relative inhibitory potency of AVR antagonists in comparison to MIA-602 is summarized in Table 3 A and B. Over 60 AVR compounds were tested in 12 cancer cell lines.
Based on the results of cell proliferation assay after cancer cells were treated with antagonist at concentration of 5 µM for 72H, * at concentration of 2 µM for 72 H.

[2] = molecular target: T1, membrane GHRH-receptors on human anterior pituitary cells (Homo sapiens, UniProt Q02643); assay: Receptor binding, displacement of 125I-[His1,Nle27]-hGH-RH(1-32)NH2 on human pituitary membranes; conditions: for binding affinity to membrane receptors of human pituitary cells (in words): competitive binding, human pituitary membrane fractions; for IC50: membrane receptors on human anterior pituitary cells, mean of two to three determinations, read-out: IC50
T1 construct: Human pituitary was purchased from the National Hormone and Peptide Program; tissue National Hormone and Peptide Program; host or cells: human pituitary (membrane fractions)
T1 sequence (Q02643 23-423): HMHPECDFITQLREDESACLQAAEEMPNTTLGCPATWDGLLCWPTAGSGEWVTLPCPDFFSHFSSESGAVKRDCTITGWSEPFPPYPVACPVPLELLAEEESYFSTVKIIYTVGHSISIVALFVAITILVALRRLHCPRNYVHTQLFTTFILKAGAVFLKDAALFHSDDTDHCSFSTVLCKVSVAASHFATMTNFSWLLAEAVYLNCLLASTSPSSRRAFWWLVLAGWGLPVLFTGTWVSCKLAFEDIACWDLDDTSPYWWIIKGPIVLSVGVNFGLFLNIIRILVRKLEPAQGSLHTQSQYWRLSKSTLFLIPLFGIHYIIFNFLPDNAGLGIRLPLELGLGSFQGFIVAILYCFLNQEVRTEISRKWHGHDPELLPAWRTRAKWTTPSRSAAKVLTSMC
Outline: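 Membrane fractions from human pituitary; peptides displace 125I-[His1,Nle27]-hGH-RH(1-32)NH2. IC50 is the dose giving 50% inhibition of specific binding, from duplicate tubes. Relative affinity is the ratio of test IC50 to hGH-RH(1-29)NH2 IC50.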

| SMILES | In vitro relative inhibitory potency in comparison to MIA-602, NCI-N87 [1] | binding affinity to membrane receptors of human pituitary cells (in words) [2] | IC50 [2] | relative inhibitory potency in comparison to MIA-602, Stomach N87 [1] |
| --- | --- | --- | --- | --- |
| CCCC[C@H](NC(=O)[C@@H](NC(=O)[C@H](CC(=O)O)NC(=O)[C@H](CCC(N)=O)NC(=O)[C@H](CC(C)C)NC(=O)[C@H](CC(C)C)NC(=O)[C@H](CCCN)NC(=O)[C@H](Cc1c[nH]cn1)NC(=O)[C@H](C)NC(=O)[C@H](CO)NC(=O)[C@H](CC(C)C)NC(=O)[C@H](CCC(N)=O)NC(=O)[C@H](CC)NC(=O)[C@H](CC(C)C)NC(=O)[C@@H](NC(=O)[C@H](CCCN)NC(=O)[C@H](Cc1c[nH]cn1)NC(=O)[C@H](Cc1ccc(OC)cc1)NC(=O)[C@H](CCCCNC(=N)N)NC(=O)[C@H](C)NC(=O)[C@@H](NC(=O)[C@H](Cc1c(F)c(F)c(F)c(F)c1F)NC(=O)[C@@H](NC(=O)[C@H](C)NC(=O)[C@H](CC(=O)O)NC(=O)[C@@H](CCCNC(=N)N)NC(=O)[C@H](Cc1ccc(O)cc1)NC(=O)CCCCCCCCCCCNC(=O)Cc1c(F)c(F)c(F)c(F)c1F)[C@@H](C)CC)[C@@H](C)O)C(C)C)[C@@H](C)CC)C(=O)N[C@H](CCCNC(=N)N)C(=O)N[C@@H](CCCCNC(=N)N)C(=O)NCCCCCCCCCCCC(N)=O [AVR-553, 5FPhAC-Ada-Tyr-DArg-Asp-Ala-Ile-5FPhe-Thr-Ala-Har-Tyr(Me)-His-Orn-Val-Leu-Abu-Gln-Leu-Ser-Ala-His-Orn-Leu-Leu-Gln-Asp-Ile-Nle-DArg-Har-Ada-NH2] ({Phenylacetyl(2,3,4,5,6-F5)-12Ado}-Y[dR]DAI[Phe(F5)]TA[hArg]Y(Me)H[Orn]VL[Abu]QLSAH[Orn]LLQDI[Nle][dR][hArg][12Ado]-NH2) | 1.26 | higher binding affinity in comparison to MIA-602; also recorded: highest binding affinities | 0.15 nM | – |
| CCCC[C@H](NC(=O)[C@@H](NC(=O)[C@H](CC(=O)O)NC(=O)[C@H](CCC(N)=O)NC(=O)[C@H](CC(C)C)NC(=O)[C@H](CC(C)C)NC(=O)[C@H](CCCCN)NC(=O)[C@H](CCCNC(=N)N)NC(=O)[C@H](C)NC(=O)[C@H](CO)NC(=O)[C@H](CC(C)C)NC(=O)[C@H](CCC(N)=O)NC(=O)[C@H](CC)NC(=O)[C@H](CC(C)C)NC(=O)[C@@H](NC(=O)[C@H](CCCCN)NC(=O)[C@H](CCCNC(=N)N)NC(=O)[C@H](Cc1ccc(OC)cc1)NC(=O)[C@H](CCCCNC(=N)N)NC(=O)[C@H](C)NC(=O)[C@@H](NC(=O)[C@H](Cc1c(F)c(F)c(F)c(F)c1F)NC(=O)[C@@H](NC(=O)[C@H](C)NC(=O)[C@H](CC(=O)O)NC(=O)[C@@H](CCCNC(=N)N)NC(=O)[C@H](Cc1ccc(O)cc1)NC(=O)CCCCCCCCCCCNC(=O)Cc1c(F)c(F)c(F)c(F)c1F)[C@@H](C)CC)[C@@H](C)O)C(C)C)[C@@H](C)CC)C(=O)N[C@H](CCCNC(=N)N)C(=O)N[C@@H](CCCCNC(=N)N)C(=O)NCCCCCCCCCCCC(N)=O [AVR-352, 5FPhAC-Ada-Tyr-DArg-Asp-Ala-Ile-5FPhe-Thr-Ala-Har-Tyr(Me)-Arg-Lys-Val-Leu-Abu-Gln-Leu-Ser-Ala-Arg-Lys-Leu-Leu-Gln-Asp-Ile-Nle-DArg-Har-Ada-NH2] ({Phenylacetyl(2,3,4,5,6-F5)-12Ado}-Y[dR]DAI[Phe(F5)]TA[hArg]Y(Me)RKVL[Abu]QLSARKLLQDI[Nle][dR][hArg][12Ado]-NH2) | 1.809 | higher binding affinity in comparison to MIA-602; also recorded: highest binding affinities | 0.09 nM | – |
| CCCC[C@H](NC(=O)[C@@H](NC(=O)[C@H](CC(=O)O)NC(=O)[C@H](CCC(N)=O)NC(=O)[C@H](CC(C)C)NC(=O)[C@H](CC(C)C)NC(=O)[C@H](CCCCN)NC(=O)[C@H](CCCNC(=N)N)NC(=O)[C@H](C)NC(=O)[C@H](CO)NC(=O)[C@H](CC(C)C)NC(=O)[C@H](CCC(N)=O)NC(=O)[C@H](CC)NC(=O)[C@H](CC(C)C)NC(=O)[C@@H](NC(=O)[C@H](CCCCN)NC(=O)[C@H](CCCNC(=N)N)NC(=O)[C@H](Cc1ccc(OC)cc1)NC(=O)[C@H](CCCCNC(=N)N)NC(=O)[C@H](C)NC(=O)[C@@H](NC(=O)[C@H](Cc1c(F)c(F)c(F)c(F)c1F)NC(=O)[C@@H](NC(=O)[C@H](C)NC(=O)[C@H](CC(=O)O)NC(=O)[C@@H](CCCNC(=N)N)NC(=O)[C@H](Cc1ccc(O)cc1)NC(=O)CCCCCCCCCCCNC(=O)Cc1c(F)c(F)c(F)c(F)c1F)[C@@H](C)CC)[C@@H](C)O)C(C)C)[C@@H](C)CC)C(=O)N[C@H](CCCNC(=N)N)C(=O)N[C@@H](CCCCNC(=N)N)C(=O)NC [AVR-235] ({Phenylacetyl(2,3,4,5,6-F5)-12Ado}-Y[dR]DAI[Phe(F5)]TA[hArg]Y(Me)RKVL[Abu]QLSARKLLQDI[Nle][dR][hArg]-NHMe) | 1.67 | – | – | 2.911 |
| CCCC[C@H](NC(=O)[C@@H](NC(=O)[C@H](CC(=O)O)NC(=O)[C@H](CCC(N)=O)NC(=O)[C@H](CC(C)C)NC(=O)[C@H](CC(C)C)NC(=O)[C@H](CCCCN)NC(=O)[C@H](CCCNC(=N)N)NC(=O)[C@H](C)NC(=O)[C@H](CO)NC(=O)[C@H](CC(C)C)NC(=O)[C@H](CCC(N)=O)NC(=O)[C@H](CC)NC(=O)[C@H](CC(C)C)NC(=O)[C@@H](NC(=O)[C@H](CCCCN)NC(=O)[C@H](CCCNC(=N)N)NC(=O)[C@H](Cc1c(F)c(F)c(F)c(F)c1F)NC(=O)[C@H](CCCCNC(=N)N)NC(=O)[C@H](C)NC(=O)[C@@H](NC(=O)[C@H](Cc1ccc(Cl)cc1)NC(=O)[C@@H](NC(=O)[C@H](C)NC(=O)[C@H](CC(=O)O)NC(=O)[C@@H](CCCNC(=N)N)NC(=O)[C@H](Cc1ccc(O)cc1)NC(=O)CCCCCCCCCCCNC(=O)Cc1c(F)c(F)c(F)c(F)c1F)[C@@H](C)CC)[C@@H](C)O)C(C)C)[C@@H](C)CC)C(=O)N[C@H](CCCNC(=N)N)C(=O)N[C@@H](CCCCNC(=N)N)C(=O)NCCCCCCCCCCCC(=O)NC [AVR-354] ({Phenylacetyl(2,3,4,5,6-F5)-12Ado}-Y[dR]DAI[Phe(4-Cl)]TA[hArg][Phe(F5)]RKVL[Abu]QLSARKLLQDI[Nle][dR][hArg][12Ado]-NHMe) | – | higher binding affinity in comparison to MIA-602; also recorded: highest binding affinities | – | – |
| CCCC[C@H](NC(=O)[C@@H](NC(=O)[C@H](CC(=O)O)NC(=O)[C@H](CCC(N)=O)NC(=O)[C@H](CC(C)C)NC(=O)[C@H](CC(C)C)NC(=O)[C@H](CCCN)NC(=O)[C@H](Cc1c[nH]cn1)NC(=O)[C@H](C)NC(=O)[C@H](CO)NC(=O)[C@H](CC(C)C)NC(=O)[C@H](CCC(N)=O)NC(=O)[C@H](CC)NC(=O)[C@H](CC(C)C)NC(=O)[C@@H](NC(=O)[C@H](CCCN)NC(=O)[C@H](Cc1c[nH]cn1)NC(=O)[C@H](Cc1ccc(OC)cc1)NC(=O)[C@H](CCCCNC(=N)N)NC(=O)[C@H](C)NC(=O)[C@@H](NC(=O)[C@H](Cc1c(F)c(F)c(F)c(F)c1F)NC(=O)[C@@H](NC(=O)[C@H](C)NC(=O)[C@H](CC(=O)O)NC(=O)[C@@H](CCCNC(=N)N)NC(=O)[C@H](Cc1ccc(O)cc1)NC(=O)CCCCCCCCCCCNC(=O)Cc1ccccc1)[C@@H](C)CC)[C@@H](C)O)C(C)C)[C@@H](C)CC)C(=O)N[C@H](CCCNC(=N)N)C(=O)N[C@@H](CCCCNC(=N)N)C(N)=O [MIA-602, PhAC-Ada, Tyr D-Arg, Asp, Ala, Ile, 5FPhe, Thr, Ala, Har, Tyr(Me), His, Orn, Val, Leu, Abu, Gin, Leu, Ser, Ala, His, Om, Leu, Leu, Gin, Asp, Ile; Nle, D-Arg, Har NH2, reference compound] ({PhAc-12Ado}-Y[dR]DAI[Phe(F5)]TA[hArg]Y(Me)H[Orn]VL[Abu]QLSAH[Orn]LLQDI[Nle][dR][hArg]-NH2) | 1 | – | – | 1 |
